Assay results: PubChem BioAssay AID1996
Converted amounts (≈) assume the structure as drawn.

Details: buffer; pH 7.4; 200.0 µM

SMILES	solubility kinetic [µg/mL]
O=C(Nc1ccc2oc(-c3ccccc3F)nc2c1)c1ccccc1F	< 0.4
CC1CCCN(C2(O)C(=O)Nc3c(C(F)(F)F)cccc32)C1 (centres undefined)	> 47.1
CC(O)Cn1c(N2CCCC2)nc2c1c(=O)[nH]c(=O)n2C (centres undefined)	41.4 (≈ 141 µM)
COc1cc(NC(=O)C[n+]2ccc(C(=O)c3ccccc3)cc2)cc(OC)c1.[Cl-]	> 61.9
O=C(Cc1ccccc1F)Nc1ccc(S(=O)(=O)N2CCCC2)cc1	44.9 (≈ 124 µM)
O=C(OCC(=O)c1ccccc1Br)c1ccncc1	> 48
CC(C)N(C)S(=O)(=O)c1ccc(Cl)c(C(=O)O)c1	> 43.8
O=C(Nc1nccs1)c1ccc2ccccc2n1	5.6 (≈ 21.9 µM)
[O-][N+]1=c2ccc(Nc3ccccc3)cc2=NC12CCCCC2	< 0.2
CC(C(=O)OCC(=O)c1ccccc1)N1C(=O)c2ccccc2C1=O (centres undefined)	40.4 (≈ 120 µM)
Cc1ccc(C)c(-c2csc(NC(=O)c3c(C)noc3C)n2)c1	2.1 (≈ 6.41 µM)
CCN(CC)CCCNC(=O)c1cc(-c2ccc3c(c2)OCO3)on1	49.4 (≈ 143 µM)
O=C(Oc1ccc(Cl)c2cccnc12)c1cccnc1	30 (≈ 105 µM)
CCOc1ccccc1C(=O)NC(C)CCc1ccccc1 (centres undefined)	22.2 (≈ 74.6 µM)
Clc1nc(Cl)nc(NCCC2=CCCCC2)n1	> 41
Cc1ccc(NC(=O)CN2CCOCC2)cc1C	35.1 (≈ 141 µM)
COCCN(CC(=O)Nc1cccc(C)c1C)C(=O)c1oc2ccccc2c1C	7.4 (≈ 18.8 µM)
CC1CCN(c2nc3ccccn3c(=O)c2C=O)CC1	> 40.7
CSc1nc2cc(Oc3cccc(Cl)c3Cl)c(Cl)cc2[nH]1	0.5 (≈ 1.39 µM)
COCCNC(=O)CN1C(=O)NC2(CCOc3ccccc32)C1=O (centres undefined)	42.9 (≈ 129 µM)
CC1(C)CC(=O)C2=C(C1)NC(=O)NC2c1ccc(Cl)cc1 (centres undefined)	6.9 (≈ 22.6 µM)
CCOc1ccc(NC(=O)c2ccccc2NC(=O)c2cccnc2)cc1	1.4 (≈ 3.87 µM)
CS(=O)(=O)N1CCN=C1SCc1ccc(F)cc1	> 43.3
CC(=O)Nc1ccc(Nc2ccc([N+](=O)[O-])cn2)cc1	15.8 (≈ 58 µM)

SMILES	solubility kinetic [µg/mL]
O=C(CSc1ncccn1)NC1CCCc2ccccc21 (centres undefined)	42.5 (≈ 142 µM)
COc1ccccc1OCCC(=O)NCc1ccc2c(c1)OCO2	45.1 (≈ 137 µM)
Cn1cnc2c(N/N=C/c3cccs3)ncnc21	> 38.7
Cc1ccc([N+](=O)[O-])c(OCc2ncc(Cl)n2C)c1	9.8 (≈ 34.8 µM)
O=C(/C=C/c1ccc([N+](=O)[O-])s1)N1CCCC1	> 37.8
COc1cc2c(cc1OC)-c1cc(Nc3ccc(F)cc3)nc(=O)n1CC2	2.1 (≈ 5.72 µM)
COc1ccc(C(=O)OCc2cc(=O)n3ccsc3n2)cc1F	4 (≈ 12 µM)
Cc1cc(Cl)nc(SCC(=O)c2ccccc2)n1	29.3 (≈ 105 µM)
NC(=O)CSc1nc2cc(S(=O)(=O)N3CCOCC3)ccc2o1	> 53.6
CC(C)c1ccc(NC(=O)NCc2ccc3c(c2)OCO3)cc1	< 0.3
COc1ccc2oc(C(=O)N3CCN(S(=O)(=O)c4ccc(F)cc4)CC3)c(C)c2c1	7.5 (≈ 17.3 µM)
O=C1/C(=C/c2ccncc2)SC(=S)N1Cc1ccccc1	1.7 (≈ 5.44 µM)
CC(c1ccccc1)N1CC(C(=O)Nc2nccs2)CC1=O (centres undefined)	> 47.3
Cc1csc(SCC(=O)NC(=O)C2CCCCC2)n1	> 44.8
Cc1ccc2nsnc2c1S(=O)(=O)Nc1ccccc1C(=O)O	> 52.4
CCCn1c(N2CCN(C(=O)/C=C/C(=O)O)CC2)nc2ccccc21	> 51.4
O=C(c1ccccc1)N1CCCN(c2nccc(C(F)(F)F)n2)CC1	44.8 (≈ 128 µM)
CCOC(=O)/C(C#N)=C1/C=C(C)c2ccccc2N1	0.4 (≈ 1.57 µM)
Cc1cc2ccccn2c1C(=O)c1cccc([N+](=O)[O-])c1	0.3 (≈ 1.07 µM)
Cc1nc(NC(=O)COC(=O)[C@@H](NC(=O)c2ccco2)C(C)C)c(Cl)cc1Cl	> 64.2
Cc1ccc(C(=O)OCC(=O)NCCC2=CCCCC2)cc1N	21 (≈ 66.4 µM)
CC(C)(c1ccccc1)c1ccc(OCCN2CCCC2)cc1	29.2 (≈ 94.4 µM)
O=C(COC(=O)CCC(=O)c1ccc(Cl)cc1)NCc1ccc(F)cc1	6.4 (≈ 16.9 µM)
O=C(COC(=O)CSc1ccc([N+](=O)[O-])cc1)NCC1CCCO1 (centres undefined)	> 53.2

SMILES	solubility kinetic [µg/mL]
O=C(NC1CC1)c1ccc(NS(=O)(=O)c2ccccc2)cc1	> 47.5
O=C1NCCn2ccc(=O)cc21	21.6 (≈ 132 µM)
Cc1ccccc1OCCC(=O)Nc1ccc2c(C)cc(=O)oc2c1	4.2 (≈ 12.4 µM)
CSc1ncc(Cl)c(C(=O)Nc2cc(C)ccc2C)n1	< 0.2
CC(NC(=O)c1ccccc1Cl)C1CC2CCC1C2 (centres undefined)	19.7 (≈ 70.9 µM)
CCC1(c2ccccc2)NC(=O)N(CC(=O)N2CCc3ccccc32)C1=O (centres undefined)	6.8 (≈ 18.7 µM)
C=CC[C@H]1CC(C)=C[C@H](CC=C)[NH2+]1.[Cl-]	> 32.1
Cc1nc(N(C)Cc2ccccc2)c2c(C)c(C)sc2n1	4.2 (≈ 14.1 µM)
Cc1ccc(S(=O)(=O)NCCN2CCNC2=O)cc1	38.5 (≈ 136 µM)
CCc1nc(N2CCN(C(C)=O)CC2)c2c3c(sc2n1)CCCC3	> 51.7
O=c1c2ccccc2nc(-c2ccccc2)n1-c1ccccc1	43.6 (≈ 146 µM)
COc1ccc(Cl)cc1NCCC(O)c1ccc(F)cc1 (centres undefined)	24.7 (≈ 79.7 µM)
Cc1ccc(C(=O)Nc2ccc(S(=O)(=O)N3CCCC3)cc2)s1	7.2 (≈ 20.5 µM)
CCCn1c(C)cc(C=O)c1C	16.3 (≈ 98.6 µM)
CN(CC(=O)Nc1ccc(Cl)c(C(F)(F)F)c1)C(=O)c1cnccn1	13.7 (≈ 36.8 µM)
O=C(Nc1cc([N+](=O)[O-])ccc1F)c1ccc2ccccc2c1	< 0.3
CC(=O)ONC(=Nc1ccccc1)c1nonc1N	> 39.2
CC(C)(C)c1ccc(C(=O)NCCNC(=O)c2ccco2)cc1	39.5 (≈ 126 µM)
CN(c1ncnc(N)c1[N+](=O)[O-])C1CCCCC1	> 37.7
COc1ccc(-n2cc(-c3ccc(Br)cc3)[nH]c2=S)cc1	< 0.4
COc1ccc(NC(=O)C2COc3ccccc3O2)cc1 (centres undefined)	> 42.8
COc1ccc(CCN2C(=O)C(C)=C(C)C2=O)cc1OC	> 43.4
NC(=S)Nc1ccccc1Br	> 34.7
O=C(Cc1cccs1)Nc1ccc(F)cc1	> 35.3

SMILES	solubility kinetic [µg/mL]
O=c1ccc2ccc(Oc3ccc([N+](=O)[O-])cc3Cl)cc2o1	2.5 (≈ 7.87 µM)
Cc1ccc2nc(-c3ccc4c(c3)NC(=O)CO4)cn2c1	3.2 (≈ 11.5 µM)
CSc1ccc(CNCCCSc2ncccn2)cc1.Cl	> 51.3
CC(c1ccccc1)n1cnc2ccccc2c1=O (centres undefined)	> 37.5
CCCCN(C)CCNC(=O)C(=O)c1c(C)[nH]c2ccccc12	> 47.3
CC1=NCCN1CCNC(=O)Nc1cc(C)cc(C)c1	40 (≈ 146 µM)
O=C(COc1ccc2ccc(=O)oc2c1)NC1CCCC1	> 43.1
CC1CCCN(C(=O)CCCC(=O)N2CCCC(C)C2)C1 (centres undefined)	> 44.2
COc1ccc(CCCC(=O)Nc2cc(C)ccc2OC)cc1	20 (≈ 63.8 µM)
Cc1ccc(NC(=O)CCCc2nc3ccccc3s2)c(O)c1	> 49
O=[N+]([O-])c1ccc(Cc2ccccn2)c([N+](=O)[O-])c1	33.6 (≈ 130 µM)
O=C(CCNS(=O)(=O)c1ccccc1)N1CCCCCC1	> 46.6
Cc1nnc(SCC(=O)Nc2ccc(N(C)C)cc2)n(N)c1=O	> 50.2
O=S(=O)(c1ccc(F)c(F)c1F)N1CCN(c2ncnc3sccc23)CC1	2.5 (≈ 6.03 µM)
CCCn1c(SCC(=O)NC2CCCC2)nnc1C(C)C	> 46.6
COc1cccc(/C=C/C(=O)NCc2ccc(S(N)(=O)=O)cc2)c1	12.7 (≈ 36.7 µM)
O=C(COC(=O)Cc1ccc(S(=O)(=O)N2CCOCC2)s1)Nc1ccc(F)cc1F	> 69.1
S=C(NCc1ccco1)NC1CCCc2ccccc21 (centres undefined)	36.4 (≈ 127 µM)
CCOC(=O)c1nc(Nc2ccccc2C)c2ccccc2n1	> 46.1
CC1(C)CC(=O)N(c2cc(Cl)ccc2Cl)C(=O)C1	14.7 (≈ 51.4 µM)
Cc1ccc(NC(=O)N2CCCCCC2)cc1	> 34.8
O=[N+]([O-])c1cc(C(F)(F)F)ccc1NCC1CCCO1 (centres undefined)	0.6 (≈ 2.07 µM)
O=C(Nc1nc2ccsc2c(=O)s1)c1ccc(Cl)cc1	< 0.3
O=C(CCCc1nc(-c2ccccc2)no1)NC1CCCC1	> 44.9

SMILES	solubility kinetic [µg/mL]
CC(c1ccccc1)C1CC(=O)N(c2ccc([N+](=O)[O-])cc2)C1=O (centres undefined)	32.5 (≈ 100 µM)
CCNC(=S)NCc1ccc(OC)c(OC)c1	> 38.2
COCCCNC(=O)c1ccc(NC(C)=O)cc1	> 37.5
COc1ccc(C)cc1NC(=O)C1CCCCN1S(=O)(=O)c1ccccc1 (centres undefined)	12 (≈ 30.9 µM)
COc1ccc(C(=O)Nn2c(C)nc3ccccc3c2=O)cc1	> 46.4
Cc1cc(OCC(O)CNC(C)c2ccccc2)ccc1C(C)C.Cl (centres undefined)	45.3
Cc1ccc(OCC(=O)NCCNC(=O)c2cccnc2)cc1C	46.7 (≈ 143 µM)
Cc1ccc(C(=O)N/C(=C/c2ccco2)C(=O)NCc2ccco2)cc1	> 52.6
O=C(NCCCNC(=O)c1ccc(Cl)cc1Cl)c1ccco1	50.1 (≈ 147 µM)
CCN1CCC(O)(C#Cc2ccccc2)CC1	33.5 (≈ 146 µM)
CC1CCCN(C(=O)COC(=O)Cc2ccc(Cl)cc2)C1 (centres undefined)	29.8 (≈ 96.2 µM)
CCC(c1ccc(C)cc1)N1C(=O)C2C3CCC(O3)C2C1=O (centres undefined)	41.1 (≈ 137 µM)
CC(=O)Nc1ccc(C(=O)OCC(=O)N2CCCC2=O)cc1	> 45.6
CN(C)c1ccc(C(O)Cc2nc3ccccc3n2C)cc1 (centres undefined)	12.1 (≈ 41 µM)
CN1C(=O)NC(c2ccccc2[N+](=O)[O-])C2=C1CC(C)(C)CC2=O (centres undefined)	39.4 (≈ 120 µM)
CC1(C)CC(NC(=O)C2CCCCC2)CC(C)(C)N1	35.2 (≈ 132 µM)
CC(C#N)(Cc1ccccc1)Nc1ccccc1 (centres undefined)	18.8 (≈ 79.6 µM)
O=C(CN1CCC(c2nc3ccccc3s2)CC1)N1CCCCC1	> 51.5
COCCN(C(=O)COC(=O)Cc1c(C)nc2ccccc2c1C)c1c(N)n(CC(C)C)c(=O)[nH]c1=O	64.2 (≈ 125 µM)
Cc1ccc(NC(=O)Cn2c(=O)oc3ccccc32)cc1C	4.2 (≈ 14.2 µM)
Cc1ccc(/C=C2\C(=O)NC(=O)N(CC3CCCO3)C2=O)s1 (centres undefined)	> 48.1
CCN(CC)c1ccc(N=Cc2c(O)[nH]c(=O)[nH]c2=O)cc1	5.8 (≈ 19.2 µM)
C=CCN1C(=O)NC(=O)/C(=C/c2ccc(OCC(=O)Nc3ccc(C)cc3)cc2)C1=O	> 62.9
